Experiments:
MCF7 = experiment: Cytotoxicity against human MCF7 cells after 5 days by SRB assay; assay type: functional; conditions: MCF7, 120 h
MDA-MB-468 = experiment: Cytotoxicity against human MDA-MB-468 cells after 5 days by SRB assay; assay type: functional; conditions: MDA-MB-468, 120 h
MDA-MB-231 = experiment: Cytotoxicity against human MDA-MB-231 cells after 5 days by SRB assay; assay type: functional; conditions: MDA-MB-231, 120 h
[1] = Cytotoxicity against human SKBR3 cells after 5 days by SRB assay; assay type: functional; conditions: SK-BR-3, 120 h
Cytochrome P450 1A2 = molecular target: T1, Cytochrome P450 1A2 (Homo sapiens, UniProt P05177); experiment: Inhibition of CYP1A2 (unknown origin) using CEC substrate after 15 mins by fluorescence assay; assay type: ADME
T1 sequence (P05177 whole entry): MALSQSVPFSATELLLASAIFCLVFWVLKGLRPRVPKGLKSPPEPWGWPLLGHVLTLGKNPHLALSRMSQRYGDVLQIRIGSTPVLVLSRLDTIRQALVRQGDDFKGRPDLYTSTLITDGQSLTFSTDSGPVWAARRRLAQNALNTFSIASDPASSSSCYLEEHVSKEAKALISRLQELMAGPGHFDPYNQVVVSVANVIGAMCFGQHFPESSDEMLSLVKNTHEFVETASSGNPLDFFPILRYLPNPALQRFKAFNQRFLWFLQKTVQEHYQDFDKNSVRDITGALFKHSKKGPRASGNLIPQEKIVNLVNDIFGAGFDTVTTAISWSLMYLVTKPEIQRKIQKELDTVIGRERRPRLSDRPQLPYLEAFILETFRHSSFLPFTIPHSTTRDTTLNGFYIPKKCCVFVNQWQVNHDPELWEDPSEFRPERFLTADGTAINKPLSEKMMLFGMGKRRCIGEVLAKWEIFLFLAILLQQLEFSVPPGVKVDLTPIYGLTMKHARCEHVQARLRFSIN

Cytochrome P450 2C9 = Cytochrome P450 2C9 (Homo sapiens, UniProt P11712); experiment: Inhibition of CYP2C9 (unknown origin) using MFC substrate after 45 mins by fluorescence assay; assay type: ADME
Cytochrome P450 2C9, sequence (P11712 whole entry): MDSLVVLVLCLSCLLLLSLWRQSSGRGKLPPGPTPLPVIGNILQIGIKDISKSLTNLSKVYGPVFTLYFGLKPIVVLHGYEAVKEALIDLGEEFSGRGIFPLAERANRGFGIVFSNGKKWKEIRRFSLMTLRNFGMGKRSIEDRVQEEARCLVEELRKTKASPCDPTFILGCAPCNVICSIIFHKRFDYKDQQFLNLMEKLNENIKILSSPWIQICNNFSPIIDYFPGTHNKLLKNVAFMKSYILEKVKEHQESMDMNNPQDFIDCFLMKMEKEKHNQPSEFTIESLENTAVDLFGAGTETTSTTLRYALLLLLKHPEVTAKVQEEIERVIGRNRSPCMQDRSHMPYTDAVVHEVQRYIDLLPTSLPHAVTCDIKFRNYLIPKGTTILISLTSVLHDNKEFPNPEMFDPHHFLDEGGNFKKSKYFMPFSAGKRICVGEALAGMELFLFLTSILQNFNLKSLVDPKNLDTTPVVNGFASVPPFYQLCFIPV

Cytochrome P450 2C19 = Cytochrome P450 2C19 (Homo sapiens, UniProt P33261); experiment: Inhibition of CYP2C19 (unknown origin) using MFC substrate after 30 mins by fluorescence assay; assay type: ADME
Cytochrome P450 2C19, sequence (P33261 whole entry): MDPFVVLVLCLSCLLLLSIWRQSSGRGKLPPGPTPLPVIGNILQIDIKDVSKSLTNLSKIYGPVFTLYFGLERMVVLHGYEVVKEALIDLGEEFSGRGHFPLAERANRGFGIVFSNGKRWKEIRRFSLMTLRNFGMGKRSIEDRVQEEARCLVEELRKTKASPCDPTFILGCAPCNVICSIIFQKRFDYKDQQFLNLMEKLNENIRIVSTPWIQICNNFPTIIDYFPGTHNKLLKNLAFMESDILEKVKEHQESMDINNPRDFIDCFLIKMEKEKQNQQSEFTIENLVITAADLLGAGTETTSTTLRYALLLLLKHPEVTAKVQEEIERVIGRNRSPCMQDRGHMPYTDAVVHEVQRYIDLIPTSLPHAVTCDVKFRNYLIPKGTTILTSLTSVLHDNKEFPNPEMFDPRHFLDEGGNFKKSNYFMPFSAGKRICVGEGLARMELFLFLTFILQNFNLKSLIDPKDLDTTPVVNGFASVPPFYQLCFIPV

Cytochrome P450 2D6 = Cytochrome P450 2D6 (Homo sapiens, UniProt P10635); experiment: Inhibition of CYP2D6 (unknown origin) using AMMC substrate after 45 mins by fluorescence assay; assay type: ADME
Cytochrome P450 2D6, sequence (P10635 whole entry): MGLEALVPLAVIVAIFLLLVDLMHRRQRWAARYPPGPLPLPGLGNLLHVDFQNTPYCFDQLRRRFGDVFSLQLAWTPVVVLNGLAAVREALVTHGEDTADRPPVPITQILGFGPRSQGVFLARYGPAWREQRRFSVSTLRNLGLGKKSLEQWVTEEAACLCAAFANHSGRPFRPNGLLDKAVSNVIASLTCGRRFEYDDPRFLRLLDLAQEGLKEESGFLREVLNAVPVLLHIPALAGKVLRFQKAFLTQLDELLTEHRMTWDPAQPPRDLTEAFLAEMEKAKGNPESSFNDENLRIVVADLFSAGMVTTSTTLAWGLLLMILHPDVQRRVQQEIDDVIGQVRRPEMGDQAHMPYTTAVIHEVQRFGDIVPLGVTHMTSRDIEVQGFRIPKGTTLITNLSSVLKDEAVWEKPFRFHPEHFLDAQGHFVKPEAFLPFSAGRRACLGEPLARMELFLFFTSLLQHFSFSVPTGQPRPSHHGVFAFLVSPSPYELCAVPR

Cytochrome P450 3A4 = Cytochrome P450 3A4 (Homo sapiens, UniProt P08684); experiment: Inhibition of CYP3A4 (unknown origin) using BFC substrate after 30 mins by fluorescence assay; assay type: ADME
Cytochrome P450 3A4, sequence (P08684 whole entry): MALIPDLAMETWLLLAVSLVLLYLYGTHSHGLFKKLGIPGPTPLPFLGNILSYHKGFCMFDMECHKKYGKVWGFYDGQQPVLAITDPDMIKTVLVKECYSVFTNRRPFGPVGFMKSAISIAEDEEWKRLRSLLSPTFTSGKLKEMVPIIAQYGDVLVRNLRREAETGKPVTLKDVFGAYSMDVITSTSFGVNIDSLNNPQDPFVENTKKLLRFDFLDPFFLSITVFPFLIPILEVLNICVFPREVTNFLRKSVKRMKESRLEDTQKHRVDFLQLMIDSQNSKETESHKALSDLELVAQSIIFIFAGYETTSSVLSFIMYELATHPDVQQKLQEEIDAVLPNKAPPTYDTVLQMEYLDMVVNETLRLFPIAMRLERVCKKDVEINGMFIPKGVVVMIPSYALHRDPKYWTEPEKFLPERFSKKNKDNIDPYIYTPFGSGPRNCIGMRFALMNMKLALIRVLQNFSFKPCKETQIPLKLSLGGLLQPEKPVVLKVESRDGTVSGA

[2] = Cmax in SCID mouse at 25 mg/kg, po by LCMS/MS method; assay type: ADME, organism-based; design: dose 25 mg/kg, route oral; conditions: in vivo
[3] = AUC in SCID mouse at 25 mg/kg, po by LCMS/MS method; assay type: ADME, organism-based; design: dose 25 mg/kg, route oral; conditions: plasma
[4] = molecular target: T2, Receptor-type tyrosine-protein kinase FLT3 (Homo sapiens, UniProt P36888); experiment: Inhibition of FLT3 (unknown origin) by FRET-based homogeneous assay
T2 sequence (P36888 whole entry): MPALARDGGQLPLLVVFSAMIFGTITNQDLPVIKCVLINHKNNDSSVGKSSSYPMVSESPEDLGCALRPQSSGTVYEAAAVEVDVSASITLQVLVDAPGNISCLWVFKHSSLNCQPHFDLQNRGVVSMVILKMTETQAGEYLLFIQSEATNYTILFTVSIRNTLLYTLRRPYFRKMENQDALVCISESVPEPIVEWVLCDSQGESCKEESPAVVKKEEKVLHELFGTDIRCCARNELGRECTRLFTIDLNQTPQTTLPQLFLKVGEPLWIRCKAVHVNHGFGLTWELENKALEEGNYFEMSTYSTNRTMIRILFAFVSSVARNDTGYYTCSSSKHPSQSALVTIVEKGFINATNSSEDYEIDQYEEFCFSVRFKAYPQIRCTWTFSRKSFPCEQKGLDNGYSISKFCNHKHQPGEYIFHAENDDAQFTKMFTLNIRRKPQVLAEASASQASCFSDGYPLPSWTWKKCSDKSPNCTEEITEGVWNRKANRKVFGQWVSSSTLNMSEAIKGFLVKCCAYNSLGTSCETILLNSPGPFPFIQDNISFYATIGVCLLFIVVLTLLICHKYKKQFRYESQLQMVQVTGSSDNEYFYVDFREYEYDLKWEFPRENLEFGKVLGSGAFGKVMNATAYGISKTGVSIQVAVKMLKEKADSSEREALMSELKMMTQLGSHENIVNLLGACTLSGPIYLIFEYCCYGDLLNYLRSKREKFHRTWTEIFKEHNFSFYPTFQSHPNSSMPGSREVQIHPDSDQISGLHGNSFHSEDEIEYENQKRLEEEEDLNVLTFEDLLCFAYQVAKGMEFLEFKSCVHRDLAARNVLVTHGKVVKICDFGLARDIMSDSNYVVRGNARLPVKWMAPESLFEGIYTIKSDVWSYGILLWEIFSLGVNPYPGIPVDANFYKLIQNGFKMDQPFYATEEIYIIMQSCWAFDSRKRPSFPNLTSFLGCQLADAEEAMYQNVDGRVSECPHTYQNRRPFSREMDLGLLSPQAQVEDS

[5] = molecular target: Vascular endothelial growth factor receptor 2 (Homo sapiens, UniProt P35968); experiment: Inhibition of KDR (unknown origin) by FRET-based homogeneous assay
Vascular endothelial growth factor receptor 2, sequence (P35968 whole entry): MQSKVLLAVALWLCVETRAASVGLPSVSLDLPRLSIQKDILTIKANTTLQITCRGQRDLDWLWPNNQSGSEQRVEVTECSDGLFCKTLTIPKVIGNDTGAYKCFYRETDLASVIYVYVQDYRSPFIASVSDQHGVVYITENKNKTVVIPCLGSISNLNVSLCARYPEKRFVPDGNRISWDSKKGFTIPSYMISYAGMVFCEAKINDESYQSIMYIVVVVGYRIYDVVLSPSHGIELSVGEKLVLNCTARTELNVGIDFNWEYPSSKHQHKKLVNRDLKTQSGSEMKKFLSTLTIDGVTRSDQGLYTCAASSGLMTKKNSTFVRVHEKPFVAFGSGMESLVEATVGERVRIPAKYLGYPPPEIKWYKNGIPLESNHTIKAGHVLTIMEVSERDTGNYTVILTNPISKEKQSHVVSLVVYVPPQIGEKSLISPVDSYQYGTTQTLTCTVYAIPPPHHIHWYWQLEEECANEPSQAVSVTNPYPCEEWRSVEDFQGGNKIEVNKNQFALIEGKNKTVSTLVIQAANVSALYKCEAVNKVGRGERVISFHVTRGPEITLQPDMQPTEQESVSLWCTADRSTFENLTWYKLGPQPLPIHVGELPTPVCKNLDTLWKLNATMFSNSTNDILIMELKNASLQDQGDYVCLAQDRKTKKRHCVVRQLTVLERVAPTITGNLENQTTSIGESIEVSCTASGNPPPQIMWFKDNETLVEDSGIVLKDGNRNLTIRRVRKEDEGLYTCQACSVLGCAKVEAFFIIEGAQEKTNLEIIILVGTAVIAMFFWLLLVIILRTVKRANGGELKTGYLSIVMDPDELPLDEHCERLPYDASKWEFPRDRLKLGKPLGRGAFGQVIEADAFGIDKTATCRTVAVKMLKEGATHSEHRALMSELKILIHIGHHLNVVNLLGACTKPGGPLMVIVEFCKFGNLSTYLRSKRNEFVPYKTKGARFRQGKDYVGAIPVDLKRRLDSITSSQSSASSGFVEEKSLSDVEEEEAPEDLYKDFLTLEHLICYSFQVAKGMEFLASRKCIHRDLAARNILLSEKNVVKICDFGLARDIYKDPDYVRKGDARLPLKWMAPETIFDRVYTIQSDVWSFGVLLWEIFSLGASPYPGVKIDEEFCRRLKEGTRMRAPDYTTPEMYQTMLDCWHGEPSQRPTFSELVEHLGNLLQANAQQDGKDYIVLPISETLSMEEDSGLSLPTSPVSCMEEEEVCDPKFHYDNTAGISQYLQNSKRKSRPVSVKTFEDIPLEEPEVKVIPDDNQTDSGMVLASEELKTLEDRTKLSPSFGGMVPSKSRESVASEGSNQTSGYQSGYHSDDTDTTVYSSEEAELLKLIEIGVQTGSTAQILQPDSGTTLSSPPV

| Structure (SMILES) | GI50 (MCF7) | GI50 (MDA-MB-468) | GI50 (MDA-MB-231) | GI50 [1] | IC50 (Cytochrome P450 1A2) | IC50 (Cytochrome P450 2C9) | IC50 (Cytochrome P450 2C19) | IC50 (Cytochrome P450 2D6) | IC50 (Cytochrome P450 3A4) | Cmax [2] | AUC [3] | IC50 [4] | IC50 [5] |
| --- | --- | --- | --- | --- | --- | --- | --- | --- | --- | --- | --- | --- | --- |
| Cc1ccc(/C=C/c2n[nH]c3cc([C@@H]4C[C@@]45C(=O)Nc4ccccc45)ccc23)cn1 | 280 nM | 140 nM | 3800 nM | 7600 nM |  |  |  |  |  |  |  |  |  |
| O=C1Nc2ccc(F)cc2[C@]12C[C@H]2c1ccc2c(/C=C/c3ccc(CN4CCOCC4)cc3)n[nH]c2c1 | 900 nM | 20 nM | 720 nM | 10000 nM | > 10000 nM | 500 nM | 1000 nM | > 10000 nM | > 1000 nM | 3700 ng/mL | 7940 ng·h/mL |  |  |
| O=C1Nc2ccccc2[C@]12C[C@H]2c1ccc2c(/C=C/c3cccnc3)n[nH]c2c1 (relative stereo) | 3600 nM | 9 nM | 50000 nM | 14700 nM | 140 nM | 320 nM | 110 nM | > 1000 nM | > 1000 nM | 37 ng/mL | 93 ng·h/mL |  |  |
| Cc1ccc(/C=C/c2n[nH]c3cc([C@@H]4C[C@@]45C(=O)Nc4ccccc45)ccc23)c(C)n1 (relative stereo) | 6800 nM | 70 nM | > 50000 nM | 50000 nM |  |  |  |  |  |  |  | 59 nM | 2100 nM |
| O=C1Nc2ccccc2[C@]12C[C@H]2c1ccc2c(/C=C/c3ccc(CN4CCCCC4)nc3)n[nH]c2c1 (relative stereo) | 0.01 nM | 0.4 nM | 35800 nM | 3400 nM |  |  |  |  |  |  |  |  |  |
| COc1ccc2c(c1)[C@]1(C[C@H]1c1ccc3c(/C=C/c4ccc(CN5CCCCC5)nc4)n[nH]c3c1)C(=O)N2 (relative stereo) | 0.01 nM | 0.02 nM | 3900 nM | 9200 nM |  | 1400 nM | 600 nM |  |  | 290 ng/mL | 740 ng·h/mL |  |  |
| CN(C)Cc1ccc(/C=C/c2n[nH]c3cc([C@@H]4C[C@@]45C(=O)Nc4ccc(OC(F)F)cc45)ccc23)cc1 (relative stereo) | 25 nM | 5 nM | 4800 nM | 1600 nM |  |  |  |  |  |  |  | 32 nM | 4900 nM |
| CN(C)Cc1ccc(/C=C/c2n[nH]c3cc([C@@H]4C[C@@]45C(=O)Nc4ccc(Cl)cc45)ccc23)cc1 (relative stereo) | 0.01 nM | 0.06 nM | 930 nM | 3500 nM |  |  |  |  |  |  |  |  |  |
| Cc1ccc2c(c1)[C@]1(C[C@H]1c1ccc3c(/C=C/c4ccc(CN(C)C)cc4)n[nH]c3c1)C(=O)N2 (relative stereo) | 0.01 nM | 0.05 nM | 2800 nM | 3400 nM |  |  |  |  |  |  |  |  |  |
| CN(C)Cc1ccc(/C=C/c2n[nH]c3cc([C@@H]4C[C@@]45C(=O)Nc4ccc(F)cc45)ccc23)cc1 (relative stereo) | 100 nM | 10 nM | 550 nM | 2200 nM |  |  |  |  |  |  |  |  |  |
| CCc1ccc2c(c1)[C@]1(C[C@H]1c1ccc3c(/C=C/c4ccc(CN(C)C)cc4)n[nH]c3c1)C(=O)N2 (relative stereo) | 240 nM | 10 nM | 2000 nM | 2000 nM |  |  |  |  |  |  |  |  |  |
| O=C1Nc2ccccc2[C@]12C[C@H]2c1ccc2c(/C=C/c3ccc(CN4CCOCC4)cc3)n[nH]c2c1 (relative stereo) | 10 nM | 10 nM | < 10 nM | 11300 nM | > 10000 nM | 1400 nM | 1800 nM | > 10000 nM | > 1000 nM | 1800 ng/mL | 4300 ng·h/mL |  | 1400 nM |
| COc1ccc2c(c1)[C@]1(C[C@H]1c1ccc3c(/C=C/c4ccc(CN5CCOCC5)cc4)n[nH]c3c1)C(=O)N2 (relative stereo) | < 10 nM | < 10 nM | < 10 nM | 13800 nM | > 10000 nM | 1400 nM | 2100 nM | > 1000 nM | > 1000 nM | 1700 ng/mL | 4900 ng·h/mL |  | 24000 nM |
| Cc1ccc2c(c1)[C@]1(C[C@H]1c1ccc3c(/C=C/c4ccc(CN5CCOCC5)cc4)n[nH]c3c1)C(=O)N2 (relative stereo) | 80 nM | 30 nM | 560 nM | 8800 nM |  |  |  |  |  |  |  |  |  |
| COc1ccc2c(c1)[C@]1(C[C@H]1c1ccc3c(/C=C/c4cc(F)c(CN5CCOCC5)c(F)c4)n[nH]c3c1)C(=O)N2 (relative stereo) | 50 nM | 60 nM | 1700 nM | 3700 nM |  |  |  |  |  |  |  |  | 7900 nM |
| O=C1Nc2ccccc2[C@]12C[C@H]2c1ccc2c(/C=C/c3ccc(CN4CCCC4)cc3)n[nH]c2c1 (relative stereo) | 50 nM | < 10 nM | 1900 nM | 4100 nM |  |  |  |  |  |  |  |  |  |
| O=C1Nc2ccccc2[C@]12C[C@H]2c1ccc2c(/C=C/c3ccc(CN4CCCCC4)cc3)n[nH]c2c1 (relative stereo) | 600 nM | 500 nM | 900 nM | 800 nM |  |  |  |  |  |  |  |  | 12 nM |
| CNC(=O)c1ccccc1Sc1ccc2c(/C=C/c3ccccn3)n[nH]c2c1 [AXITINIB] | 2300 nM | 2800 nM |  | 4600 nM |  |  |  |  |  |  |  |  |  |

— ChEMBL document CHEMBL3351767, “The discovery of Polo-like kinase 4 inhibitors: design and optimization of spiro[cyclopropane-1,3'[3H]indol]-2'(1'H).ones as orally bioavailable antitumor agents” (J Med Chem, 2015)
